Reference: ChEMBL document CHEMBL1201862, “PubChem BioAssay data set” (2004)
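Tested at 5 concentrations; 48 h exposure; 96-well plates; endpoints linearly interpolated, else capped at highest concentration. GI50: concentration for 50% inhibition of growth.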 Activity calls are given as the source filed them. No stated cut-off is given here; in the data, active = GI50 up to about 1.1 µM and inactive = higher.

Tests used:
Assay in all cases: NCI-60 cell line screen, 48 h
786-0 = test system: 786-0
A498 = test system: A498
A549 = test system: A549
ACHN = test system: ACHN
CCRF-CEM = test system: CCRF-CEM
COLO 205 = test system: COLO 205
DLD-1 = test system: DLD-1
DMS-114 = test system: DMS-114
DMS-273 = test system: DMS-273
EKVX = test system: EKVX
HCT-116 = test system: HCT-116
HCT-15 = test system: HCT-15
HL-60 = test system: HL-60
HOP-62 = test system: HOP-62
HOP-92 = test system: HOP-92
HT-29 = test system: HT-29
IGROV-1 = test system: IGROV-1
KM-20L2 = test system: KM-20L2
KM12 = test system: KM12
LOX IMVI = test system: LOX IMVI
LXFL 529 = test system: LXFL 529
M14 = test system: M14
M19-MEL = test system: M19-MEL
MOLT-4 = test system: MOLT-4
Malme-3M = test system: Malme-3M
NCI-H226 = test system: NCI-H226
NCI-H23 = test system: NCI-H23
NCI-H460 = test system: NCI-H460
NCI-H522 = test system: NCI-H522
OVCAR-3 = test system: OVCAR-3
OVCAR-4 = test system: OVCAR-4
OVCAR-5 = test system: OVCAR-5
OVCAR-8 = test system: OVCAR-8
RPMI-8226 = test system: RPMI-8226
SF-268 = test system: SF-268
SF-295 = test system: SF-295
SF-539 = test system: SF-539
SK-MEL-28 = test system: SK-MEL-28
SK-MEL-2 = test system: SK-MEL-2
SK-MEL-5 = test system: SK-MEL-5
SK-OV-3 = test system: SK-OV-3
SN12C = test system: SN12C
SNB-75 = test system: SNB-75
SNB-78 = test system: SNB-78
SR = test system: SR
TK-10 = test system: TK-10
U-251 = test system: U-251
UACC-257 = test system: UACC-257
UO-31 = test system: UO-31

Which results are given for c1ccc(Nc2nnc(CSc3nc(-c4ccccc4)c(-c4ccccc4)[nH]3)s2)cc1?
GI50 (786-0): 18.2 µM (inactive); GI50 (A498): 26.5 µM (inactive); GI50 (A549): 28.4 µM (inactive); GI50 (ACHN): 26.3 µM (inactive); GI50 (CCRF-CEM): 15.5 µM (inactive); GI50 (COLO 205): 12.3 µM (inactive); GI50 (DLD-1): 53.8 µM (inactive); GI50 (DMS-114): 27.5 µM (inactive); GI50 (DMS-273): 16.8 µM (inactive); GI50 (EKVX): 19.4 µM (inactive); GI50 (HCT-116): 17.2 µM (inactive); GI50 (HCT-15): 18.1 µM; GI50 (HL-60): 13.2 µM (inactive); GI50 (HOP-62): 21.1 µM (inactive); GI50 (HOP-92): 11.1 µM (inactive); GI50 (HT-29): 15.2 µM (inactive); GI50 (IGROV-1): 21.3 µM (inactive); GI50 (KM-20L2): 26.7 µM (inactive); GI50 (KM12): 21.1 µM (inactive); GI50 (LOX IMVI): 17 µM (inactive); GI50 (LXFL 529): 20.1 µM (inactive); GI50 (M14): 14.7 µM (inactive); GI50 (M19-MEL): 15.3 µM (inactive); GI50 (MOLT-4): 10.1 µM (inactive); GI50 (Malme-3M): 19.2 µM (inactive); GI50 (NCI-H226): 14.9 µM (inactive); GI50 (NCI-H23): 21.3 µM (inactive); GI50 (NCI-H460): 12.4 µM (inactive); GI50 (NCI-H522): 17.2 µM (inactive); GI50 (OVCAR-3): 10.5 µM (inactive); GI50 (OVCAR-4): 27 µM (inactive); GI50 (OVCAR-5): 21.3 µM (inactive); GI50 (OVCAR-8): 23 µM (inactive); GI50 (RPMI-8226): 11.5 µM (inactive); GI50 (SF-268): 24.4 µM (inactive); GI50 (SF-295): 18.6 µM (inactive); GI50 (SF-539): 26.4 µM (inactive); GI50 (SK-MEL-28): 24.2 µM (inactive); GI50 (SK-MEL-2): 19 µM (inactive); GI50 (SK-MEL-5): 15.2 µM (inactive); GI50 (SK-OV-3): 22.8 µM (inactive); GI50 (SN12C): 17.1 µM (inactive); GI50 (SNB-75): 44.4 µM (inactive); GI50 (SNB-78): 30.1 µM (inactive); GI50 (SR): 20.6 µM (inactive); GI50 (TK-10): 26.1 µM (inactive); GI50 (U-251): 13.7 µM (inactive); GI50 (UACC-257): 20.5 µM (inactive); GI50 (UO-31): 13.3 µM (inactive)
